According to patent US4906612A (priority 1988, dated 1990):
Values after ≈ are worked out from the molar mass of the structure shown. Like-named read-outs stand apart in the source and are kept apart here.

How the values were obtained:
[1] = LD50 when intravenously injected in male mice; assay type: in vivo
From the text: The growth-promoting agent of the present invention not only promotes the growth of animals, but also improves feed utilization efficiency. The agent is also effective for the treatment of bacterial diseases.

Cl. perfringens = assay type: cell-based, Clostridium perfringens; settings: GAM agar, 24 hours at 37° C.
[2] = Growth promoting effect on chicks, 20 ppm in feed for 10 days (Table 2); assay type: in vivo; settings: for Body weight gain, mean value ± standard error: chicks 8 to 18 days of age, 20 ppm in feed × 10 days; for Feed efficiency: chicks, no antibiotic group 1.70; for Body weight gain index: no antibiotic group = 100.0
Description: Growth promoting effect of PA-42867-A on chicks (8 days of age, Abaeker species) was determined using a known antibiotic, Thiopeptin, as a control. PA-42867-A and Thiopeptin were added to an antibiotic-free feed mash (crude protein content (CP): 18%) at a concentration of 20 ppm, and the chicks were raised for 10 days with the resulting feed according to the battery method. Specifically describing the method of experiment, newly hatched chicks were fed until 8 days of age with a feed ration of 23% CP by the flat feeding method, at which time the chicks were divided into three groups each containing 25-26 chicks (males and females, 12-13 chicks each) so that the average weights of the chicks in all groups were nearly the same. PA-42867-A group received 20 ppm of the antibiotic a day for 10 days, Thiopeptin group received 20 ppm for 10 days, and the control group received antibiotic-free feed of 18% CP for 10 days. The above feeding was conducted after dividing the chicks in each of these groups into sub-groups of 6-7 chicks and putting each sub-group in a cage (435×600×410 mm). The feeding was conducted for 10 days (until 18 days of age) at an environmental temperature of 26°±2°C. The effectiveness of the drug was evaluated based on the body weight gain and the feed efficiency observed during the 10 days period of the experiment.

[3] = Growth promoting effect on chicks, 20 ppm in feed for 13 days (Table 3); assay type: in vivo; settings: for Feed efficiency, 10 days / Feed efficiency, 13 days / Body weight gain ± standard error, 13 days / Body weight gain ± standard error, 10 days: 20 ppm in feed; for Feed efficiency, 10 days / Body weight gain comparative index, 10 days: 10th day; for Feed efficiency, 10 days: no antibiotic group 1.69; for Feed efficiency, 13 days / Body weight gain comparative index, 13 days: 13th day; for Feed efficiency, 13 days: no antibiotic group 1.76; for Body weight gain ± standard error, 13 days: chicks 8-21 days of age, measured on the 13th day; for Body weight gain ± standard error, 10 days: chicks from 8 days of age, measured on the 10th day; for Body weight gain comparative index, 10 days / Body weight gain comparative index, 13 days: weight gain of the control group regarded as 100
Description: In the same manner, another growth promoting tests were conducted on des-(4-epi-vancosaminyl)PA-42867-A and des-(4-epi-vancosaminyl-0-glucosyl)PA-42867-A by giving 20 ppm of the test drug to chicks of 8-21 days of age for 13 days, using Thiopeptin as a control.
The newly hatched chicks were fed until eight days of age with a feed mash (crude protein content (CP):23%) without addition of any antibiotic by means of the flat feeding. Then, the chicks were divided into four groups each containing 24 chicks (males and females, 12 each). Each group was placed in four cages after dividing into four unisexual sub-groups, each consisting of 6-7 chicks, and raised for 13 days with an animal feed of CP 18% with or without antibiotics. Thus, each of four groups received 20 ppm of des-(4-epi-vancosaminyl)PA-42867-A, 20 ppm of des(4-epi-vancosaminyl-0-glucosyl)PA-42867-A, 20 ppm of Thiopeptin, and no antibiotic, respectively.
Body weight gain and feed efficiency were measured on the 10th and the 13th day.

CNC(CC(C)C)C(=O)NC1C(=O)NC(CC(N)=O)C(=O)NC2C(=O)NC3C(=O)NC(C(=O)NC(C(=O)O)c4cc(O)cc(O)c4-c4cc3ccc4O)C(OC3CC(C)(N)C(O)C(C)O3)c3ccc(c(Cl)c3)Oc3cc2cc(c3OC2OC(CO)C(O)C(O)C2OC2CC(C)(N)C(O)C(C)O2)Oc2ccc(cc2)C1O (stereo not drawn) [Compound 1, PA-42867-A]
LD50 [1]: 1955 mg/kg | MIC (Cl. perfringens; strain 3C-01, origin chicken): 0.39 µg/mL (≈ 0.25 µM) | MIC (Cl. perfringens; strain 6B-10, origin cow): 0.2 µg/mL (≈ 0.128 µM) | MIC (Cl. perfringens; strain 9C-02, origin chicken): 0.2 µg/mL (≈ 0.128 µM) | MIC (Cl. perfringens; strain 02441, origin chicken): 0.39 µg/mL (≈ 0.25 µM) | MIC (Cl. perfringens; strain CW-1970, origin cow): 0.39 µg/mL (≈ 0.25 µM) | MIC (Cl. perfringens; strain FC 2208/75, origin cow): 0.39 µg/mL (≈ 0.25 µM) | MIC (Cl. perfringens; strain NCTC-8239, origin cow): 0.39 µg/mL (≈ 0.25 µM) | MIC (Cl. perfringens; strain NCTC-8798, origin cow): 0.39 µg/mL (≈ 0.25 µM) | MIC (Cl. perfringens; strain NCTC-10239, origin cow): 0.39 µg/mL (≈ 0.25 µM) | MIC (Cl. perfringens; strain S-79, origin cow): 0.39 µg/mL (≈ 0.25 µM) | MIC (Cl. perfringens; strain SP07, origin chicken): 0.39 µg/mL (≈ 0.25 µM) | Feed efficiency compared with the group raised with antibiotic-free feed (in words) ([2]; 20 ppm × 10 days): better results in feed efficiency | Body weight gain compared with the no-antibiotic control group and the Thiopeptin group (in words) ([2]; 20 ppm × 10 days, p<0.01): significantly high body weight gain | Body weight gain, mean value ± standard error [2]: 332.0 ± 6.71 g | Feed efficiency ([2]; 20 ppm × 10 days): 1.53 | Body weight gain index ([2]; 20 ppm × 10 days): 110.0 | Feed efficiency, 10 days [3]: 1.54 | Feed efficiency, 13 days [3]: 1.66 | Body weight gain ± standard error, 13 days [3]: 442.6 ± 7.8 g | Body weight gain ± standard error, 10 days [3]: 328.9 ± 6.3 g | Body weight gain comparative index, 10 days [3]: 105.4 | Body weight gain comparative index, 13 days [3]: 103.9

CNC(CC(C)C)C(=O)NC1C(=O)NC(CC(N)=O)C(=O)NC2C(=O)NC3C(=O)NC(C(=O)NC(C(=O)O)c4cc(O)cc(O)c4-c4cc3ccc4O)C(OC3CC(C)(N)C(O)C(C)O3)c3ccc(c(Cl)c3)Oc3cc2cc(c3OC2OC(CO)C(O)C(O)C2O)Oc2ccc(cc2)C1O (stereo not drawn) [Compound 2, des-(4-epi-vancosaminyl) PA-42867-A]
LD50 [1]: > 3000 mg/kg | MIC (Cl. perfringens; strain 3C-01, origin chicken): 1.56 µg/mL (≈ 1.1 µM) | MIC (Cl. perfringens; strain 6B-10, origin cow): 1.56 µg/mL (≈ 1.1 µM) | MIC (Cl. perfringens; strain 9C-02, origin chicken): 1.56 µg/mL (≈ 1.1 µM) | MIC (Cl. perfringens; strain 02441, origin chicken): 1.56 µg/mL (≈ 1.1 µM) | MIC (Cl. perfringens; strain CW-1970, origin cow): 1.56 µg/mL (≈ 1.1 µM) | MIC (Cl. perfringens; strain FC 2208/75, origin cow): 1.56 µg/mL (≈ 1.1 µM) | MIC (Cl. perfringens; strain NCTC-8239, origin cow): 1.56 µg/mL (≈ 1.1 µM) | MIC (Cl. perfringens; strain NCTC-8798, origin cow): 1.56 µg/mL (≈ 1.1 µM) | MIC (Cl. perfringens; strain NCTC-10239, origin cow): 1.56 µg/mL (≈ 1.1 µM) | MIC (Cl. perfringens; strain S-79, origin cow): 0.78 µg/mL (≈ 0.551 µM) | MIC (Cl. perfringens; strain SP07, origin chicken): 1.56 µg/mL (≈ 1.1 µM) | Feed efficiency, 10 days [3]: 1.62 | Feed efficiency, 13 days [3]: 1.66 | Body weight gain ± standard error, 13 days [3]: 447.4 ± 11.5 g | Body weight gain ± standard error, 10 days [3]: 324.6 ± 8.3 g | Body weight gain comparative index, 10 days [3]: 104.0 | Body weight gain comparative index, 13 days [3]: 105.0

CNC(CC(C)C)C(=O)NC1C(=O)NC(CC(N)=O)C(=O)NC2C(=O)NC3C(=O)NC(C(=O)NC(C(=O)O)c4cc(O)cc(O)c4-c4cc3ccc4O)C(OC3CC(C)(N)C(O)C(C)O3)c3ccc(c(Cl)c3)Oc3cc2cc(c3O)Oc2ccc(cc2)C1O (stereo not drawn) [Compound 3, des-(4-epi-vancosaminyl-0-glucosyl)PA-42867-A]
LD50 [1]: 205 mg/kg | MIC (Cl. perfringens; strain 3C-01, origin chicken): 0.78 µg/mL (≈ 0.623 µM) | MIC (Cl. perfringens; strain 6B-10, origin cow): 0.78 µg/mL (≈ 0.623 µM) | MIC (Cl. perfringens; strain 9C-02, origin chicken): 0.78 µg/mL (≈ 0.623 µM) | MIC (Cl. perfringens; strain 02441, origin chicken): 0.78 µg/mL (≈ 0.623 µM) | MIC (Cl. perfringens; strain CW-1970, origin cow): 0.78 µg/mL (≈ 0.623 µM) | MIC (Cl. perfringens; strain FC 2208/75, origin cow): 0.78 µg/mL (≈ 0.623 µM) | MIC (Cl. perfringens; strain NCTC-8239, origin cow): 0.78 µg/mL (≈ 0.623 µM) | MIC (Cl. perfringens; strain NCTC-8798, origin cow): 0.78 µg/mL (≈ 0.623 µM) | MIC (Cl. perfringens; strain NCTC-10239, origin cow): 0.78 µg/mL (≈ 0.623 µM) | MIC (Cl. perfringens; strain S-79, origin cow): 0.39 µg/mL (≈ 0.311 µM) | MIC (Cl. perfringens; strain SP07, origin chicken): 0.78 µg/mL (≈ 0.623 µM)

Thiopeptin [reference compound]
Feed efficiency compared with the group raised with antibiotic-free feed (in words) ([2]; 20 ppm × 10 days): better results in feed efficiency | Body weight gain, mean value ± standard error [2]: 313.7 ± 8.80 g | Feed efficiency ([2]; 20 ppm × 10 days): 1.58 | Body weight gain index ([2]; 20 ppm × 10 days): 103.9 | Feed efficiency, 10 days [3]: 1.61 | Feed efficiency, 13 days [3]: 1.70 | Body weight gain ± standard error, 13 days [3]: 445.5 ± 11.1 g | Body weight gain ± standard error, 10 days [3]: 319.5 ± 7.5 g | Body weight gain comparative index, 10 days [3]: 102.4 | Body weight gain comparative index, 13 days [3]: 104.6
